Results reported in patent US8486935B2, “Xinafoate salt of N4-(2,2-difluoro-4H-benzo[1,4]oxazin-3-one)-6-yl]-5-fluoro-N2-[3-(methylaminocarbonylmethyleneoxy)phenyl]2,4-pyrimidinediamine” (Rigel Pharmaceuticals, Inc., priority 2007, dated 2013).
Structures can show the parent of a compound that is named as a salt.

How the values were obtained:
Type in all cases: physicochemical
[1] = Solvation/hydration by thermogravimetric analysis (TGA); conditions: for hydration or solvation: TGA, ambient to 300° C.
Experimental: Solvation/Hydration was assessed by thermogravimetric analysis (TGA) using a TA Instruments Hi-Res TGA 2950 instrument measuring the weight loss of a 8.8 mg sample in an open platinum pan. The sample was heated at 20° C./min from ambient to 300° C. utilizing a nitrogen furnace purge gas.

[2] = Hygroscopicity by dynamic vapour sorption
Experimental: Hygroscopicity was assessed using dynamic vapour sorption equipment (Surface Measurement Systems Ltd, model DVS-1). The analysis was conducted at 30° C. with a nitrogen gas flow of 200 cc/min. Water sorption and desorption were determined in the range 0 to 90% relative humidity (RH) using 15% RH intervals. Exposure was for a minimum of 2 hours at each humidity or until the rate of weight change was less than 0.0003%/minute (averaged over 10 minutes). Sample weight was 12.6 mg. The sample was weighed using a CAHN D-200, seven place digital recording balance, which is an integral part of the equipment.

[3] = Solid form after micronisation using jet milling; conditions: following micronisation using jet milling
[4] = Solid state stability and excipient compatibility of the lactose monohydrate blend; conditions: for % main band remaining versus control: micronised, 1:100 blend with lactose monohydrate, control 5° C./0% humidity
Experimental: In order to test for solid state stability and excipient compatibility, a sample of the xinafoate salt was micronised by jet milling (particle size: D10=0.24 μm, D50=1.15 μm, D90=4.29 μm) and the resulting powder was blended at a 1:100 weight ratio with lactose monohydrate (Respitose grade SV008). Samples were stored for 12 weeks at 25° C./60% relative humidity and 40° C./75% relative humidity and assayed for remaining drug content and impurities at 4, 8 and 12 weeks. A control sample was stored at 5° C./0% humidity.

[5] = lactose blend, up to 12 weeks at 25° C./60% RH and 40° C./75% RH

Structure (SMILES)	hydration or solvation [1]	solvate formation ([1]; nine solvents tested)	hygroscopicity ([2]; 0 to 90% RH, 30° C.)	water sorption ([2]; 90% RH, 30° C., before micronisation) [%]	water sorption ([2]; 90% relative humidity, following micronisation using jet milling) [%]	change in degree of crystallinity [3]	change in solid form [3]	% main band remaining versus control ([4]; 25° C./60% RH, 4 weeks) [%]	% main band remaining versus control ([4]; 25° C./60% RH, 8 weeks) [%]	% main band remaining versus control ([4]; 25° C./60% RH, 12 weeks) [%]	% main band remaining versus control ([4]; 40° C./75% RH, 4 weeks) [%]	% main band remaining versus control ([4]; 40° C./75% RH, 8 weeks) [%]	% main band remaining versus control ([4]; 40° C./75% RH, 12 weeks) [%]	change in physical form during storage [4, 5]	degradation during storage [4, 5]
CNC(=O)COc1cccc(Nc2ncc(F)c(Nc3ccc4c(c3)NC(=O)C(F)(F)O4)n2)c1 [free base, N4-[(2,2-difluoro-4H-benzo[1,4]oxazin-3-one)-6-yl]-5-fluoro-N2-[3-(methylaminocarbonylmethyleneoxy)phenyl]-2,4-pyrimidinediamine]	hydrates to form a hemihydrate	formed a different solvated form in each of nine solvents tested													
CNC(=O)COc1cccc(Nc2ncc(F)c(Nc3ccc4c(c3)NC(=O)C(F)(F)O4)n2)c1 [xinafoate salt, xinafoate salt of N4-[(2,2-difluoro-4H-benzo[1,4]oxazin-3-one)-6-yl]-5-fluoro-N2-[3-(methylaminocarbonylmethyleneoxy)phenyl]-2,4-pyrimidinediamine]	does not show any hydration or salvation		essentially non-hygroscopic	0.6	0.9	negligible decrease in the degree of crystallinity	no change in solid form	100.2	99.9	100.1	100.4	100.0	100.0	no change in physical form was detected	no significant degradation was observed
